Columns and labels:
[1] = system: cultured bovine adrenal chromaffin cells; conditions: cultured bovine adrenal chromaffin cells (Kudo et al., 1998); cited from earlier work
[2] = Karikura et al., 1991; cited from earlier work
[3] = Odani et al., 1983; cited from earlier work
[4] = molecular target: T1, nuclear glucocorticoid receptor (Homo sapiens, UniProt P04150); conditions: Lee et al., 1997; Chung et al., 1998; cited from earlier work
T1 sequence (P04150 1-777): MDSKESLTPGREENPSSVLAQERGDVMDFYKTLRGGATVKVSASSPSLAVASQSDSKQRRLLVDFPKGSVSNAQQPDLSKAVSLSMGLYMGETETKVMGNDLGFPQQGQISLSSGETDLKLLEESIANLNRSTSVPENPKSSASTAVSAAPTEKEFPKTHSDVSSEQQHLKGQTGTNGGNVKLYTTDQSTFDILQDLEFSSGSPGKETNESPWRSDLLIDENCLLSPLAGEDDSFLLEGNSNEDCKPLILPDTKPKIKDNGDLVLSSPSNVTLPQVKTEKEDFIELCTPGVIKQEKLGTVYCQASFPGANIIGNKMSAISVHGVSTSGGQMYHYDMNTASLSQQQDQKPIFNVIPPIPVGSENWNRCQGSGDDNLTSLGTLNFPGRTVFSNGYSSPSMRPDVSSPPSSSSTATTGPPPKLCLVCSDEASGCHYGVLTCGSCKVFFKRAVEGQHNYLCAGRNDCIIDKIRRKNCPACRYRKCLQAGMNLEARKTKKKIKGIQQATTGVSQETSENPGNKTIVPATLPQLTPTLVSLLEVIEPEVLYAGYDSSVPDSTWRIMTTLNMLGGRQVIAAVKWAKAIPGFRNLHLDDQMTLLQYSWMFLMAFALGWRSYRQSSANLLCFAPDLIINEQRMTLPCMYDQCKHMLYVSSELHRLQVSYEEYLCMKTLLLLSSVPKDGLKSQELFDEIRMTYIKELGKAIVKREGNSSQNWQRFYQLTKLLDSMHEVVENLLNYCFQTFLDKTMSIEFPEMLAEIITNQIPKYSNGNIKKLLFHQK

[5] = system: B16-BL6 melanoma cells; conditions: B16-BL6 melanoma cells (Wakabayashi et al., 1998); cited from earlier work
[6] = Hasegawa et al., 1995; cited from earlier work
[7] = system: albumin mRNA; conditions: streptozotocin-induced diabetic rats (Yokozawa et al., 1996); cited from earlier work
[8] = system: hepatic tissue of streptozotocin-induced diabetic rats; conditions: streptozotocin-induced diabetic rats (Yokozawa et al., 1991); cited from earlier work
[9] = system: streptozotocin-induced diabetic rats; conditions: streptozotocin-induced diabetic rats (Yokozawa et al., 1985); cited from earlier work
[10] = Body weight of ob/ob mice; format: in vivo
Procedure: The average body weight of adult ob/ob or db/db mice is almost twice that of their lean littermates. Animals were treated with Panax ginseng berry extract, Panax quinquefolius berry extract, ginsenoside Re, or a polysaccharide fraction from Panax quinquefolius and the body weights were determined.

[11] = system: C57BL/6J ob/ob mice; assay: Fasting blood glucose level in ob/ob mice; format: in vivo; conditions: 20 mg/kg daily IP
Source text: (§1) Male C57BL/6J ob/ob mice and their lean littermates (+/?) were obtained from Jackson Laboratory (Bar Harbor, Me.). In this obese, insulin-resistant mouse model, obesity is due to a mutation in the obese gene that encodes for leptin. […] The heterozygous mice are lean and normoglycemic. It is believed that the development of hyperglycemia in the ob/ob mouse is a consequence of epistatic interaction of the obesity mutation with diabetes-susceptibility genes. Adult animals at 10-18 weeks of age were used. Mice were housed in environmentally controlled conditions with a 12-h light/dark cycle and had free access to standard rodent pellet food, except when fasted before some experiments.
(§2) Animals were treated with Panax ginseng berry extract, Panax quinquefolius berry extract, ginsenoside Re or a polysaccharides fraction from Panax quinquefolius and the fasting blood glucose levels were measured. Fasting blood glucose levels were measured after animals were fasted for 4 hr (starting from 9:00AM), on Day 0 (before treatment), Day 5 (during treatment), and Day 12 (last day of treatment). Blood glucose levels were determined in tail blood samples at 1:00PM using a Glucose Analyzer (Hemocue AB, Angelholm, Sweden).

[12] = system: ob/ob mice; assay: Intraperitoneal glucose tolerance test (IPGTT) in ob/ob mice; format: in vivo; conditions: 20 mg/kg, 12 days, compared to vehicle-treated ob/ob mice
Procedure: (§3) Animals were treated with Panax ginseng berry extract, Panax quinquefolius berry extract, ginsenoside Re, or a polysaccharide fraction from Panax quinquefolius . IPGTT was performed on Day 0 and Day 12. On the days of the test, animals were fasted for 4 hr (starting from 9:00AM) followed by an IP administration of glucose (2 g/kg). Blood glucose levels were determined in tail blood samples at 0 (prior to glucose administration), and 30, 60 and 120 min after glucose administration.

[13] = system: lean mice; assay: Intraperitoneal glucose tolerance test (IPGTT) in lean mice; format: in vivo; conditions: 20 mg/kg, 12 days
Procedure: as §3

[14] = system: lean littermates (+/?) of C57BL/6J ob/ob mice; assay: Fasting blood glucose level in lean littermates of ob/ob mice; format: in vivo; conditions: after treatment with ginsenoside Re
Source text: as §1, §2

For `CC(C)=CCC[C@@](C)(O)[C@H]1CC[C@]2(C)[C@@H]1[C@H](O)C[C@@H]1[C@@]3(C)CC[C@H](O)C(C)(C)[C@@H]3[C@@H](O[C@@H]3O[C@H](CO)[C@@H](O)[C@H](O)[C@H]3O[C@@H]3O[C@@H](C)[C@H](O)[C@@H](O)[C@H]3O)C[C@]12C` [20(R) ginsenoside Rg2], the “acetylcholine-evoked secretion of catecholamines” value [1] is listed as “inhibit”.
In the case of `CC(C)=CCCC(C)(O)C1CCC2(C)C1C(O)CC1C3(C)CCC(O)C(C)(C)C3C(OC3OC(CO)C(O)C(O)C3OC3OC(C)C(O)C(O)C3O)CC12C` [20(S) ginsenoside Rg2], the “acetylcholine-evoked secretion of catecholamines” value [1] is listed as “inhibit” and the “inhibitory effect compared with the other C-20 isomer” value [1] is listed as “greater inhibitory effect”.
In the case of `CC(C)=CCC[C@](C)(O[C@@H]1O[C@H](CO[C@@H]2O[C@H](CO)[C@@H](O)[C@H](O)[C@H]2O)[C@@H](O)[C@H](O)[C@H]1O)[C@H]1CC[C@]2(C)[C@@H]1[C@H](O)C[C@@H]1[C@@]3(C)CC[C@H](O[C@@H]4O[C@H](CO)[C@@H](O)[C@H](O)[C@H]4O[C@@H]4O[C@H](CO)[C@@H](O)[C@H](O)[C@H]4O)C(C)(C)[C@@H]3CC[C@]12C` [Rb1], the “metabolism by intestinal flora” value [2] is given as “hydrolyzed to compound K” and the absorption after ingestion [3] is given as “poorly absorbed”.
In the case of `CC(C)=CCC[C@](C)(O[C@@H]1O[C@H](CO)[C@@H](O)[C@H](O)[C@H]1O)[C@H]1CC[C@]2(C)[C@@H]1[C@H](O)C[C@@H]1[C@@]3(C)CC[C@H](O)C(C)(C)[C@@H]3[C@@H](O[C@@H]3O[C@H](CO)[C@@H](O)[C@H](O)[C@H]3O)C[C@]12C` [Rg1], the absorption after ingestion [3] is listed as “poorly absorbed” and the “ligand of the nuclear glucocorticoid receptor” value [4] is listed as “functional ligand”.
In the case of `CC(C)=CCC[C@](C)(O[C@@H]1O[C@H](CO)[C@@H](O)[C@H](O)[C@H]1O)[C@H]1CC[C@]2(C)[C@@H]1[C@H](O)C[C@@H]1[C@@]3(C)CC[C@H](O)C(C)(C)[C@@H]3CC[C@]12C` [compound K], the apoptosis [5] is given as “induce apoptosis” and the “cytotoxicity of antineoplastic drugs” value [6] is given as “increase the cytotoxicity”.
In the case of `CC(C)=CCC[C@](C)(O[C@@H]1O[C@H](CO[C@@H]2OC[C@H](O)[C@H](O)[C@H]2O)[C@@H](O)[C@H](O)[C@H]1O)[C@H]1CC[C@]2(C)[C@@H]1[C@H](O)C[C@@H]1[C@@]3(C)CC[C@H](O[C@@H]4O[C@H](CO)[C@@H](O)[C@H](O)[C@H]4O[C@@H]4O[C@H](CO)[C@@H](O)[C@H](O)[C@H]4O)C(C)(C)[C@@H]3CC[C@]12C` [ginsenoside Rb2], the “albumin mRNA in the liver” value [7] is given as “increased albumin mRNA”, the “ATP levels in hepatic tissue” value [8] is given as “increased ATP levels” and the blood glucose levels [9] is given as “significant decrease”.
`CC(C)=CCC[C@](C)(O[C@@H]1O[C@H](CO)[C@@H](O)[C@H](O)[C@H]1O)[C@H]1CC[C@]2(C)[C@@H]1[C@H](O)C[C@@H]1[C@@]3(C)CC[C@H](O)C(C)(C)[C@@H]3[C@@H](O[C@@H]3O[C@H](CO)[C@@H](O)[C@H](O)[C@H]3O[C@@H]3O[C@@H](C)[C@H](O)[C@@H](O)[C@H]3O)C[C@]12C` [ginsenoside Re] showed a body weight ([10]; 20 mg/kg group, Day 0) of 53.1 ± 1.4 g, a body weight ([10]; 20 mg/kg, Day 5) of 52.9 ± 1.5 g and a body weight ([10]; 20 mg/kg, Day 12) of 54.7 ± 1.7 g. The fasting blood glucose ([11]; Day 5, 4 hr fast) was 188 ± 9.2 mg/dL, the fasting blood glucose ([11]; Day 12, 4 hr fast) was 180 ± 10.8 mg/dL and the “blood glucose levels at 60 min and 120 min following glucose administration, IPGTT” value [12] was “significantly decreased”. For the same compound, the “glucose tolerance, IPGTT” value [13] was “not statistically affected” and the “change of fasting blood glucose” value [14] was “did not change sizably”.

Source: US20020136785A1, “Ginseng berry extracts and pharmaceutical compositions from ginseng berry for the treatment of type 2 diabetes and obesity” (priority 2000, published 2002)
